Reference: paper PMC7541927 (Preventive Nutrition and Food Science, 2020)

Molecular target: T1, α-amylase from porcine pancreas (Sus scrofa, UniProt P00690)
T1 sequence (P00690 16-511): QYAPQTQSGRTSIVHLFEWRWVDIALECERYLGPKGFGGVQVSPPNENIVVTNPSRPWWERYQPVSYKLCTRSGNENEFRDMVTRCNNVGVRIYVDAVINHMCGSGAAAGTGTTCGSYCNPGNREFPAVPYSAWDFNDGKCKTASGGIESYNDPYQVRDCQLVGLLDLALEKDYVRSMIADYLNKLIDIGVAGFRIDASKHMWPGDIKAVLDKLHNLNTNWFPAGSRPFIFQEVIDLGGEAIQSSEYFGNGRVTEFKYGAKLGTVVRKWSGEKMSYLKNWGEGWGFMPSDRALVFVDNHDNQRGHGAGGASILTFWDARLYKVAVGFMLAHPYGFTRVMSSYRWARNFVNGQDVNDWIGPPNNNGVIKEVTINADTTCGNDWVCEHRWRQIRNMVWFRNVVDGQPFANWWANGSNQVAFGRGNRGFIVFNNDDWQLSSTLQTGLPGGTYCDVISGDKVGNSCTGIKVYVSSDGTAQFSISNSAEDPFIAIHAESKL
Assay: biochemical

Question: `O=C(O)CC(O)(CC(=O)O)C(=O)O` [citric acid] was tested. Which IC50 did it give?
Answer: 640 ± 40 µM
